Biological target: T1, GPR109B (Homo sapiens, UniProt P49019)
T1 construct: gene HCAR3
T1 sequence (P49019 whole entry): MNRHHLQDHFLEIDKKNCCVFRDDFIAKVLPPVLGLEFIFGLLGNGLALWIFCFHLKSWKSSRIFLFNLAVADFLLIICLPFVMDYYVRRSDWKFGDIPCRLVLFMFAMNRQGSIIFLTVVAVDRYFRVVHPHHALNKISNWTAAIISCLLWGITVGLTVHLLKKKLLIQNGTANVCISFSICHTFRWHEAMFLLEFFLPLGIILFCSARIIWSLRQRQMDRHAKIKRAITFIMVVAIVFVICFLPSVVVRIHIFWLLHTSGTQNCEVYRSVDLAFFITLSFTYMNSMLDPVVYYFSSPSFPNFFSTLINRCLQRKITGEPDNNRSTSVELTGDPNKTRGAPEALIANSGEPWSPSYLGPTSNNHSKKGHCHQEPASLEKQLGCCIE

How did the EC50 turn out when `O=C(O)c1cccnc1` [nicotinic acid] was run?
Its EC50 is 25 µM.

Source: publication PMC3105069, “Nicotinic Acid Receptor Abnormalities in Human Skin Cancer: Implications for a Role in Epidermal Differentiation” (PLoS ONE, 2011)
